From patent publication US6358942B1, “Phenyloxazolidinones having a c-c bond 4-8 membered heterocyclic rings” (Pharmacia & Upjohn Company, priority 1995, dated 2002) come the findings set out here.

A value given as a limit tells only on which side of the number the result lay.

The test system of one data set is Staphylococcus aureus or Streptococcus species. Kind of data set: Murine Assay: in vivo antimicrobial activity, survival of mice infected intraperitoneally with bacteria.
Conditions: not given
Here is the method:
Antimicrobial activity was tested in vivo using the Murine Assay procedure. Groups of female mice (six mice of 18-20 grams each) were injected intraperitoneally with bacteria which were thawed just prior to use and suspended in brain heart infusion with 4% brewers yeast (Staphylococcus aureus) or brain heart infusion (Streptococcus species). Antibiotic treatment at six dose levels per drug was administered one hour and five hours after infection by either oral intubation or subcutaneous routes. Survival was observed daily for six days. ED50 values based on mortality ratios were calculated using probit analysis. The subject compounds are compared against well-known antimicrobials vancomycin and U-100592 as controls. See “Upjohn Oxazolidinone Antibacterial Agent”, posters presented at the 35th Interscience Conference on Antimicrobial Agents and Chemotherapy.
The term ED50 denotes the midpoint of the dose-response relation. As to `COC(=O)N1CC=C(c2ccc(N3C[C@H](CNC(C)=O)OC3=O)cc2F)CC1` [Example 57, (S)-(−)-4-[4-[5-[(Acetylamino)methyl]-2-oxo-3-oxazolidinyl]-2-fluorophenyl]-3,6-dihydro-1(2H)-pyridinecarboxylic acid methyl ester], the median effective dose (ED50) was 6.2 mg/kg.
The same measure, in the same setting: as for `COC(=O)N1CC=C(c2ccc(N3C[C@H](CNC(C)=O)OC3=O)cc2)CC1` [Example 62, (S)-(−)-4-[4-[5-[(Acetylamino)methyl]-2-oxo-3-oxazolidinyl]phenyl]-3,6-dihydro-1(2H)-pyridinecarboxylic acid methyl ester], the figure is 12 mg/kg; as for `COC(=O)N1CC(c2ccc(N3C[C@H](CNC(C)=O)OC3=O)cc2F)C1` [Example 83, (S)-N-[[3-[3-Fluoro-4-[1-(methoxycarbonyl)-3-azetidinyl]phenyl]-2-oxo-5-oxazolidinyl]methyl]acetamide], 7.5 mg/kg.

Staying with this data set, now noted: Table 2; female mice; treatment 1 h and 5 h after infection, oral intubation or subcutaneous; survival over six days; probit analysis of mortality ratios.
For `CC(=O)NC[C@H]1CN(c2ccc(C3=CCS(=O)(=O)CC3)cc2)C(=O)O1` [Example 55, (S)-(−)-N-[[3-[4-(3,6-Dihydro-2H-thiopyran-4-yl)phenyl]-2-oxo-5-oxazolidinyl]methyl]acetamide S,S-dioxide], the “ED50” value is listed as 2.30 mg/kg.
Same read-out and setting: next, `CC(=O)NC[C@H]1CN(c2ccc(C3=CCN(C=O)CC3)c(F)c2)C(=O)O1` [Example 56]: 4.40 mg/kg.
For `CC(=O)NC[C@H]1CN(c2ccc(C3=CC[S+]([O-])CC3)c(F)c2)C(=O)O1` (stereo partly drawn) [Example 63, (S)-(−)-N-[[3-[4-(3,6-Dihydro-2H-thiopyran-4-yl)-3-fluoropheny]-2-oxo-5-oxazolidinyl]methyl]acetamide S-oxide], the “ED50” value worked out at 4.90 mg/kg.
The same measure, in the same setting: next, `CC(=O)NC[C@H]1CN(c2ccc(C3=CC[S+]([O-])CC3)cc2)C(=O)O1` (stereo partly drawn) [Example 64, (S)-(−)-N-[[3-[4-(3 6-Dihydro-2H-thiopyran-4-yl)phenyl]-2-oxo-5-oxazolidinyl]methyl]acetamide S-oxide]: 4.60 mg/kg; `CC(=O)NC[C@H]1CN(c2ccc(C3=CCCN(C(=O)CO)C3)c(F)c2)C(=O)O1` [Example 71, (S)-N-[[3-[4-[1-(Hydroxyacetyl)-5,6-dihydro-2H-pyridin-3yl]-3-fluoropheny]-2-oxo-5-oxazolidinyl]methyl]acetamide]: 13.4 mg/kg.
For the molecule “(5S)-N-[[3-[3-Fluoro-4-[1-(formyl)-3-pyrrolidinyl]phenyl]-2-oxo-5-oxazolidinyl]methyl] [Example 45]”, the “ED50” value was 2.80 mg/kg.
Still for that read-out and setting: as for “(S)-(−)-N-[[3-[3-Fluoro-4-(dihydrothien-3-yl)-phenyl]-2-oxo-5-oxazolidinyl]methyl]acetamide [Example 67]”, the figure is 13.3 mg/kg.

The data set is the same for the next values; noted with them: Table 2; female mice; treatment 1 h and 5 h after infection, oral intubation or subcutaneous; survival over six days; probit analysis of mortality ratios; read-out: ED50.
Regarding `CC(=O)NC[C@H]1CN(c2ccc(C3CCOCC3)cc2)C(=O)O1` [Example 53, (S)-(−)-N-[[3-[4-[Tetrahydro-2H-pyran-4-yl]phenyl]-2-oxo-5-oxazolidinyl]methyl]acetamide], the ED50 is above 20 mg/kg.
On to `CC(=O)NC[C@H]1CN(c2ccc(C3=CCSCC3)cc2)C(=O)O1` [Example 54, (S)-(−)-N-[[3-[4-(3,6-Dihydro-2H-thiopyran-4-yl)phenyl]-2-oxo-5-oxazolidinyl]methyl]acetamide], for which the median effective dose (ED50) was 6.6 mg/kg.
`CC(=O)NC[C@H]1CN(c2ccc(C3=CCN(C(=O)COC(C)=O)CC3)cc2)C(=O)O1` [Example 59, (S)-(−)-N-[[2-Oxo-3-[4-[1-[(acetoxy)acetyl]-3,6-dihydro-2H-pyridin-4-yl]phenyl]-5-oxazolidinyl]methyl]acetamide]: the ED50 stood at 4.2 mg/kg.
Same read-out and setting: as for `CC(=O)NC[C@H]1CN(c2ccc(C3=CCN(C(=O)CO)CC3)cc2)C(=O)O1` [Example 60, (S)-(−)-N-[[3-[4-[1-(Hydroxyacetyl)-3,6-dihydro-2H-pyridin-4-yl]phenyl]-2-oxo-5-oxazolidinyl]methyl]acetamide], the figure is 3.1 mg/kg.
Still for that read-out and setting: next, `CC(=O)NC[C@H]1CN(c2ccc(C3=CCN(C=O)CC3)cc2)C(=O)O1` [Example 61, (S)-(−)-N-[[3-[4-[1-(Formyl)-3,6-dihydro-2H-pyridin-4-yl]phenyl]-2-oxo-5-oxazolidinyl]methyl]acetamide]: 6.1 mg/kg; `CC(=O)NC[C@H]1CN(c2ccc(C3(F)CCN(C=O)CC3)c(F)c2)C(=O)O1` [Example 74, (S)-(−)-N-[[3-[4-[1-Formyl-4-fluoro-4-piperidinyl]-3-fluorophenyl]-2-oxo-5-oxazolidinyl]methyl]acetamide]: 10.3 mg/kg; `CC(=O)NC[C@H]1CN(c2ccc(C3=CCN(C(=O)CO)CCC3)c(F)c2)C(=O)O1` [Example 76, (S)-(−)-N-[[3-[4-[1-(Hydroxyacetyl)-2,3,4,7-tetrahydro-1H-azepin-5-yl]-3-fluorophenyl]-2-oxo-5-oxazolidinyl]methyl]acetamide]: above 20 mg/kg.
`CC(=O)NC[C@H]1CN(c2ccc(C3=CCCN(C(=O)CO)CC3)c(F)c2)C(=O)O1` [Example 78, (S)-(−)-N-[[3-[4-[1-(Hydroxyacetyl)-2,3,6,7-tetrahydro-1H-azepin-4-yl]-3-fluorophenyl]-2-oxo-5-oxazolidinyl]methyl]acetamide]: the ED50 was 6 mg/kg.
With `CC(=O)NC[C@H]1CN(c2ccc(C3CN(C=O)C3)c(F)c2)C(=O)O1` [Example 84, (S)-N-[[3-[3-Fluoro-4-[1-(formyl)-3-azetidinyl]phenyl]-2-oxo-5-oxazolidinyl]methyl]acetamide], the ED50 is 6.5 mg/kg.

Test system in the next data set: not given
Test: not given
Conditions: not given
The melting point is the temperature, or range, at which the solid turns liquid. `CC(=O)NC[C@H]1CN(c2ccc(C3=CCCCO3)c(F)c2)C(=O)O1` [Example 80, (S)-N-[[3-[3-Fluoro-4-(3,4-dihydro-2H-pyran-6-yl)phenyl]-2-oxo-5-oxazolidinyl]methyl]acetamide] gave a melting point of 161 to 163 °C.
